The source of these data is patent publication US12084472B2 (Ardelyx, Inc., priority 2015, dated 2024).

This experiment has as its target T1, human TGR5 (Homo sapiens, UniProt Q8TDU6).
T1 construct: expressed in transfected cells; host or cells: HEK293
T1 sequence (Q8TDU6 1-330): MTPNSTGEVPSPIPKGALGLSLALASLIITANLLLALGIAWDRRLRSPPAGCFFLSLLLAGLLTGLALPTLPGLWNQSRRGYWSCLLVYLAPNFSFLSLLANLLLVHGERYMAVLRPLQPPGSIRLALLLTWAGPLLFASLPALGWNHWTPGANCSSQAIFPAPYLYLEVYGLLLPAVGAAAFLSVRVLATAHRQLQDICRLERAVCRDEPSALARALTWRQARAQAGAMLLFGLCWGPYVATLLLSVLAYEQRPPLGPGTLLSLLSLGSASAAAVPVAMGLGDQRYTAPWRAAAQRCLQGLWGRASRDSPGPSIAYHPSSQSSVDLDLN
In words: Cell-based TGR5 assay (cAMP generation, HTRF). Conditions: HEK293 cells stably transfected with human TGR5; cAMP by HTRF; 30 minutes at 37° C.; read-out: pEC50 Human TGR5 (converted). A digest of the protocol: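 Read-out was HTRF detection of cAMP, converted to concentration via a standard curve and fitted (3-parameter logistic) for pEC50 and maximal response. Agonist stimulation used HEK293 cells stably transfected with human TGR5, incubated 30 min at 37° C in IBMX-containing buffer at 0.05 nM to 10 μM compound.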
(In general: Time-resolved FRET reads energy transfer from a long-lived donor to a nearby acceptor.)
As for `O=C([C@@H](O)[C@@H](O)[C@H](O)[C@@H](O)CO)N(CCCCSc1ccc(Cl)c(COC2(c3cnccc3-c3ccccc3OC3CC3)CC2)c1)CCOCCO` [Compound I-512, (2S,3S,4R,5S)-N-(4-{[4-chloro-3-({1-[4-(2-cyclopropoxyphenyl)pyridin-3-yl]cyclopropoxy}methyl)phenyl]sulfanyl}butyl)-2,3,4,5,6-pentahydroxy-N-[2-(2-hydroxyethoxy)ethyl]hexanamide], the EC50 was less than 100 nM. The value for `O=C(O)CCN(C[C@H](O)[C@@H](O)[C@H](O)[C@H](O)CO)C(=O)CCCCc1cc(Cl)c(CNC2(c3cnccc3-c3ccccc3OC3CC3)CC2)cc1Cl` [Compound I-178, 3-(5-{2,5-dichloro-4-[({1-[4-(2-cyclopropoxyphenyl)pyridin-3-yl]cyclopropyl}amino)methyl]phenyl}-N-[(2S,3R,4R,5R)-2,3,4,5,6-pentahydroxyhexyl]pentanamido)propanoic acid] was 126 to 1000 nM. In the case of `O=C(NCCCCc1ccc(Cl)c(CNC2(c3cnccc3-c3ccccc3OC3CC3)CC2)c1)NC[C@H](O)[C@@H](O)[C@H](O)[C@H](O)CO` (stereo in doubt) [Compound I-241, 1-(4-{4-chloro-3-[({1-[4-(2-cyclopropoxyphenyl)pyridin-3-yl]cyclopropyl}amino)methyl]phenyl}butyl)-3-[(2S,3R,4R,5R)-2,3,4,5,6-pentahydroxyhexyl]urea], the EC50 was 126 to 1000 nM.

As to `CC(CCCC(=O)NC[C@H](O)[C@@H](O)[C@H](O)[C@H](O)CO)c1cc(Cl)c(CNC2(c3cnccc3-c3ccccc3OC3CC3)CC2)cc1Cl` (stereo partly drawn) [Compound I-260, 5-[2,5-dichloro-4-[([1-[4-(2-cyclopropoxyphenyl)pyridin-3-yl]cyclopropyl]amino)methyl]phenyl]-N-[(2S,3R,4R,5R)-2,3,4,5,6-pentahydroxyhexyl]hexanamide], the EC50 was less than 100 nM. The value for `COC[C@H](O)CN(C[C@H](O)[C@@H](O)[C@H](O)[C@H](O)CO)C(=O)CCCCc1cc(Cl)c(COC2(c3cnccc3-c3ccccc3OC3CC3)CC2)cc1Cl` [Compound I-124, 5-[2,5-dichloro-4-({1-[4-(2-cyclopropoxyphenyl)pyridin-3-yl]cyclopropoxy}methyl)phenyl]-N-[(2R)-2-hydroxy-3-methoxypropyl]-N-[(2S,3R,4R,5R)-2,3,4,5,6-pentahydroxyhexyl]pentanamide] was less than 100 nM; that for `O=C([C@@H](O)[C@@H](O)[C@H](O)[C@@H](O)CO)N(CCCCc1cc(Cl)c(COC2(c3cnccc3-c3ccccc3OC3CC3)CC2)cc1Cl)CCOCCO` [Compound I-85] was less than 100 nM. On to `CC(CCCN(CCCS(C)(=O)=O)C(=O)[C@@H](O)[C@@H](O)[C@H](O)[C@@H](O)CO)c1ccc(Cl)c(CNC2(c3cnccc3-c3ccccc3OC3CC3)CC2)c1` (stereo partly drawn) [Compound I-292, (2S,3S,4R,5S)-N-(4-{4-chloro-3-[({1-[4-(2-cyclopropoxyphenyl)pyridin-3-yl]cyclopropyl}amino)methyl]phenyl}pentyl)-2,3,4,5,6-pentahydroxy-N-(3-methanesulfonylpropyl)hexanamide], for which the EC50 is less than 100 nM.

As for `CC(C)(CC(=O)O)CC(=O)N(CCCCc1cc(Cl)c(CNC2(c3cnccc3-c3ccccc3OC3CC3)CC2)cc1Cl)C[C@H](O)[C@@H](O)[C@H](O)[C@H](O)CO` [Compound I-201, 4-[(4-{2,5-dichloro-4-[({1-[4-(2-cyclopropoxyphenyl)pyridin-3-yl]cyclopropyl}amino)methyl]phenyl}butyl)[(2S,3R,4R,5R)-2,3,4,5,6-pentahydroxyhexyl]carbamoyl]-3,3-dimethylbutanoic acid], the EC50 was 1260 to 10000 nM. The figure for `CN(C)CC(=O)N(CCCCc1cc(Cl)c(COC2(c3cnccc3-c3ccccc3OC3CC3)CC2)cc1Cl)C[C@H](O)[C@@H](O)[C@H](O)[C@H](O)CO` [Compound I-203, N-{4-[2,5-dichloro-4-({1-[4-(2-cyclopropoxyphenyl)pyridin-3-yl]cyclopropoxy}methyl)phenyl]butyl}-2-(dimethylamino)-N-[(2S,3R,4R,5R)-2,3,4,5,6-pentahydroxyhexyl]acetamide] is less than 100 nM; for `CCc1ccc(C(C)CCCC(=O)NC[C@H](O)[C@@H](O)[C@H](O)[C@H](O)CO)cc1CNC1(c2cnccc2-c2ccccc2OC2CC2)CC1` (stereo partly drawn) [Compound I-349, 5-{3-[({1-[4-(2-cyclopropoxyphenyl)pyridin-3-yl]cyclopropyl}amino)methyl]-4-ethylphenyl}-N-[(2S,3R,4R,5R)-2,3,4,5,6-pentahydroxyhexyl]hexanamide] it is less than 100 nM. The figure for `Cc1cc(COC2(c3cnccc3-c3ccccc3OC3CC3)CC2)c(Cl)cc1CCCCC(=O)N(C)C[C@H](O)[C@@H](O)[C@H](O)[C@H](O)CO` [Compound I-146, 5-[5-chloro-4-({1-[4-(2-cyclopropoxyphenyl)pyridin-3-yl]cyclopropoxy}methyl)-2-methylphenyl]-N-methyl-N-[(2S,3R,4R,5R)-2,3,4,5,6-pentahydroxyhexyl]pentanamide] is less than 100 nM; for `Cc1ccc(CCCCNC(=O)NC[C@H](O)[C@@H](O)[C@H](O)[C@H](O)CO)nc1CNC1(c2cnccc2-c2ccccc2OC2CC2)CC1` [Compound I-705] it is 126 to 1000 nM; for `CC(CCCCN(C)C(=O)[C@@H](O)[C@@H](O)[C@H](O)[C@@H](O)CO)c1ccc(Cl)c(CNC2(c3cnccc3-c3ccccc3OC3CC3)CC2)c1` (stereo partly drawn) [Compound I-281, (2S,3S,4R,5S)-N-(5-{4-chloro-3-[({1-[4-(2-cyclopropoxyphenyl)pyridin-3-yl]cyclopropyl}amino)methyl]phenyl}hexyl)-2,3,4,5,6-pentahydroxy-N-methylhexanamide] it is less than 100 nM. The value for `CN(CCCCc1cc(Cl)c(COC2(c3cnccc3-c3ccccc3OC3CC3)CC2)cc1Cl)C(=O)CN(CCN(CC(=O)O)CC(=O)N(C)CCCCc1cc(Cl)c(COC2(c3cnccc3-c3ccccc3OC3CC3)CC2)cc1Cl)CC(=O)O` [Compound I-188, 2-({2-[(carboxymethyl)[({4-[2,5-dichloro-4-({1-[4-(2-cyclopropoxyphenyl)pyridin-3-yl]cyclopropoxy}methyl)phenyl]butyl}(methyl)carbamoyl)methyl]amino]ethyl}[({4-[2,5-dichloro-4-({1-[4-(2-cyclopropoxyphenyl)pyridin-3-yl]cyclopropoxy}methyl)phenyl]butyl}(methyl)carbamoyl)methyl]amino)acetic acid] was 126 to 1000 nM; that for `CC(C)N(C[C@H](O)[C@@H](O)[C@H](O)[C@H](O)CO)C(=O)CCCCc1cc(Cl)c(COC2(c3cnccc3-c3ccccc3OC3CC3)CC2)cc1Cl` [Compound I-128, 5-[2,5-dichloro-4-({1-[4-(2-cyclopropoxyphenyl)pyridin-3-yl]cyclopropoxy}methyl)phenyl]-N-[(2S,3R,4R,5R)-2,3,4,5,6-pentahydroxyhexyl]-N-(propan-2-yl)pentanamide] was less than 100 nM. On to `CC(CCCC(=O)N(CCO)C[C@@H](O)[C@H](O)[C@@H](O)[C@@H](O)CO)c1ccc(Cl)c(CNC2(c3cnccc3-c3ccccc3OC3CC3)CC2)c1` (stereo partly drawn) [Compound I-331, 5-{4-chloro-3-[({1-[4-(2-cyclopropoxyphenyl)pyridin-3-yl]cyclopropyl}amino)methyl]phenyl}-N-(2-hydroxyethyl)-N-[(2R,3S,4S,5S)-2,3,4,5,6-pentahydroxyhexyl]hexanamide], for which the EC50 was less than 100 nM. The value for `Cc1ccc(CCCCC(=O)N(C)C[C@H](O)[C@@H](O)[C@H](O)[C@H](O)CO)nc1COC1(c2cnccc2-c2ccccc2OC2CC2)CC1` [Compound I-709] was 1260 to 10000 nM; that for `O=C(NCCCCCOc1ccc(Cl)c(COC2(c3cnccc3-c3ccccc3OC3CC3)CC2)c1)N[C@@H](CO)[C@@H](O)[C@H](O)[C@H](O)CO` [Compound I-760, 1-(5-(4-chloro-3-((1-(4-(2-cyclopropoxyphenyl)pyridin-3-yl)cyclopropoxy)methyl)phenoxy)pentyl)-3-((2S,3R,4S,5R)-1,3,4,5,6-pentahydroxyhexan-2-yl)urea] was 126 to 1000 nM; that for `CCC(OCc1cc(Cl)ccc1Cl)c1cnccc1-c1ccccc1OC1CC1` (stereo not shown) [Compound I-779, 4-(2-cyclopropoxyphenyl)-3-(1-((2,5-dichlorobenzyl)oxy)propyl)pyridine] was 1260 to 10000 nM. The figure for `CS(=O)(=O)NCCCN(CCCSc1ccc(Cl)c(CNC2(c3cnccc3-c3ccccc3OC3CC3)CC2)c1)C(=O)[C@@H](O)[C@@H](O)[C@H](O)[C@@H](O)CO` [Compound I-588, (2S,3S,4R,5S)-N-[3-({4-chloro-3-[({1-[4-(2-cyclopropoxyphenyl)pyridin-3-yl]cyclopropyl}amino)methyl]phenyl}sulfanyl)propyl]-2,3,4,5,6-pentahydroxy-N-(3-methanesulfonamidopropyl) hexanamide] is less than 100 nM; for `Cc1ccc(C(C)CCCNC(=O)[C@@H](O)[C@@H](O)[C@H](O)[C@@H](O)CO)cc1CNC1(c2cnccc2-c2ccccc2OC2CC2)CC1` (stereo partly drawn) [Compound I-299, (2S,3S,4R,5S)-N-(4-{3-[({1-[4-(2-cyclopropoxyphenyl)pyridin-3-yl]cyclopropyl}amino)methyl]-4-methylphenyl}pentyl)-2,3,4,5,6-pentahydroxyhexanamide] it is less than 100 nM; for `CC(C)(C)OCc1ccccc1-c1ccncc1C1(NCc2cc(Cl)ccc2Cl)CC1` [Compound I-13, 1-(4-{2-[(tert-butoxy)methyl]phenyl}pyridin-3-yl)-N-[(2,5-dichlorophenyl)methyl]cyclopropan-1-amine] it is 126 to 1000 nM.
